{"source": "patent US20020088029A1", "about": "“Plant transformation methods” (priority 1998, published 2002)", "key": {"[1]": {"system": "maize type I callus", "test": "Inoculation of maize type I callus with or without silver nitrate, survival of tissues", "format": "cell-based", "details": "½ month old type I callus, co-inoculation 2DG4 + AgNO3, transfer 2DG4 + AgNO3 + Cef, 2 weeks"}, "[2]": {"system": "maize embryos", "test": "Inoculation of maize embryos with LBA4404 with or without silver nitrate, callus initiation", "format": "cell-based", "method": "Inhibition of Agrobacterium-induced programmed cell death Preparation of tissues for inoculation with Agrobacterium: Immature embryos (1.2 to 2.2 mm in length) are aseptically excised 14-15 days after pollination from surface-sterilized, greenhouse-grown ears and plated scutellum up on callus initiation medium, 2DG4+5 mg/l chloramben (2DG4-5Chl).\nImmature embryos are sterilized as described above and plated on callus initiation medium (2DG4-5Chl) and cultured therein for 1 to 7 days. The resulting tissue is used as samples for inoculation.\nAgrobacterium is grown for 3 days on YP medium (5 g/l yeast extract, 10 g/l peptone, 5 g/l NaCl, 15 g/l agar, pH 6.8) supplemented with 50 mg/l spectinomycin and 10 mg/l tetracycline. Bacteria are collected with a loop and suspended in N6 liquid medium at a density ranging from 10^9 to 5 10^9 cells/ml. Agrobacterium cells can also be collected from an overnight culture in YP medium and resuspended in N6 liquid medium.\nMaize tissues prepared as described above are inoculated with Agrobacterium. […] Tissues are also inoculated with a 5 μl drop 10^9 to 5×10^9 cells/ml of an Agrobacterium suspension placed on the top of the tissue."}, "[3]": {"system": "tobacco leaf discs", "details": "silver nitrate present during co-cultivation; LBA4404(GIGUP) 10^9 cells/ml"}, "[4]": {"system": "cell line HE/89", "test": "DNA fragmentation (DNA ladders) in maize cells inoculated with Agrobacterium", "format": "cell-based, Zea mays L.", "details": "HE/89 cells inoculated with Agrobacterium, agent added", "experimental": "In order to determine the mechanism of cell death induced by Agrobacterium in maize tissues, genomic DNA is extracted from plant suspension cells harvested 24 or 48 hours after inoculation with Agrobacterium. Exposure to Agrobacterium causes DNA fragmentation in both maize lines, with a pattern characteristic of internucleosomal fragmentation, which is considered an early hallmark of programmed cell death. […] Furthermore, maize cells undergoing programmed cell death could not induce cell death of fresh maize embryogenic tissues.\nFurther evidence for Agrobacterium inducing DNA fragmentation is obtained by investigating the sensitivity of the process to Zn^2+ and Ca^2+. […] These characteristics are fully consistent with the effect of these divalent cations on the endogenous endonucleases responsible for DNA cleavage during apoptosis in animal system. The intensity of the ladder also is decreased by addition of cycloheximide, evidence that the process requires de novo gene expression. […] Fragmentation of DNA during apoptosis is also detected in situ by reagents that react with the exposed hydroxyls on the nucleosome units. 12 day old maize embryos from a proprietary elite line of Lancaster parentage are inoculated with LBA4404 and plated on DG4 medium supplemented with chloramben. Koziel, M.G., & al. 1993. Bio/Technology 11: 194-200. Apoptotic cells are detected by in situ staining with TACS-1 kit (Trevigen), which involves end labeling the DNA fragments by the klenow enzyme using dNTP conjugated to a detectable marker, giving a dark insoluble precipitate indicative of genomic fragmentation. Cullivier, O., Pirianov, G., Kleuser, B., Vanek, P.G., Coso, O.A., Gutking, J.S. and Spiegel, S. (1996) Nature 381, 800-803. Embryos are soaked in 3.7% formadehyde solution and processed as described by the manufacturer. To detect genomic DNA cleavage in situ, fixed embryos are treated with the TACS-1 kit. Fixed cross-sections are first treated with proteinase K for 5 min at room temperature and then dipped for 5 min into 2% hydrogen peroxide to remove endogenous peroxidase. […]"}, "[5]": {"system": "HE/89 maize friable embryogenic callus", "method": "The following experiments employ maize inbred lines (Zea mays L.) HE/89 and a line here designated as Elite 1. […] Suspension culture of Elite 1 is initiated from friable embryogenic callus selected from immature embryos. The HE/89 line is grown in a modified liquid N6 medium amended with 500 mg/l Bacto tryptone, 30 g/l sucrose and 0.5 mg/l 2,4-dichlorophenoxy acetic acid (2,4-D) (N6M). The Elite 1 line is grown in N6 liquid medium (Chu et al., 1975) supplemented with 30 g/l sucrose and 2 mg/l 2,4-D (2N63S). The Nicotiana tabacum cell line NT-1 grown in Murashige and Skoog medium supplemented with 2 mg/l of 2,4-D and sucrose (30 g/l) (MS3S) is used as an Agrobacterium-susceptible control. Suspension cultures are maintained in liquid medium on a rotary shaker (120 rpm) and are subcultured every 7 days.\nBacteria are grown in YP medium (5 g/L yeast extract, 10 g/l peptone, 5 g/l NaCl, pH 6.8) for 24 hr at 28° C. […]\nFriable embryogenic callus of HE/89 maize and of a proprietary elite inbred maize maintained in liquid medium are incubated with Agrobacterium for 10 min, 1 hr, 24 hr or 48 hrs prior to transfer to cefotaxim-containing medium. […] The presence or absence of necrosis is scored 2, 4 and 7 days after inoculation and the relative intensity of necrosis is expressed as follow: +, rare formation of necrosis; ++, weak necrosis; +++, strong necrosis; ++++, very strong necrosis."}}, "data": [{"smiles": "O=[N+]([O-])[O-].[Ag+]", "note": "[AgNO3, silver nitrate]", "values": [{"measurement": "Score (survival of tissues)", "setting": "[1]; pretreatment 2DG4 + AgNO3", "result": 95, "unit": "%"}, {"measurement": "Score (survival of tissues)", "setting": "[1]; pretreatment 2DG4", "result": 75, "unit": "%"}, {"measurement": "embryos able to produce embryogenic calli", "setting": "[2]; embryos plated on medium containing silver nitrate after Agrobacterium inoculation", "result": "About 50%"}, {"measurement": "Score (callus initiation)", "setting": "[2]; no pretreatment, co-inoculation 2DG4, transfer 2DG4 + AgNO3 + Cef, LBA4404 (GIGUP) 10^9 cells/ml, two weeks after inoculation", "result": 30, "unit": "%"}, {"measurement": "GUS activity in tobacco leaves (Agrobacterium virulence)", "setting": "[3]", "result": "No significant decrease"}]}, {"smiles": "[Ca+2]", "note": "[Ca^2+]", "values": [{"measurement": "intensity of DNA ladders (genomic fragmentation)", "setting": "[4]", "result": "increased the intensity of DNA ladders"}]}, {"smiles": "[Zn+2]", "note": "[Zn^2+]", "values": [{"measurement": "intensity of DNA ladders (genomic fragmentation)", "setting": "[4]", "result": "markedly reduced genomic fragmentation"}]}, {"smiles": "CO/N=C(\\C(=O)N[C@@H]1C(=O)N2C(C(=O)O)=C(COC(C)=O)CS[C@H]12)c1csc(N)n1", "note": "[cefotaxime]", "values": [{"measurement": "necrosis of maize tissue", "setting": "[5]", "result": "does not cause the maize tissue to become necrotic"}]}, {"smiles": "C[C@@H]1C[C@@H]([C@H](O)CC2CC(=O)NC(=O)C2)C(=O)[C@@H](C)C1", "note": "[cycloheximide]", "values": [{"measurement": "intensity of DNA ladders (genomic fragmentation)", "setting": "[4]", "result": "decreased"}]}]}
